Like-named read-outs stand apart in the source and are kept apart here.

For assay [1], the target named is T1, Fabrazyme = commercial recombinant human lysosomal α-galactosidase (GH27) (Homo sapiens, UniProt P06280).
T1 construct: purchased Fabrazyme
T1 sequence (P06280 32-429): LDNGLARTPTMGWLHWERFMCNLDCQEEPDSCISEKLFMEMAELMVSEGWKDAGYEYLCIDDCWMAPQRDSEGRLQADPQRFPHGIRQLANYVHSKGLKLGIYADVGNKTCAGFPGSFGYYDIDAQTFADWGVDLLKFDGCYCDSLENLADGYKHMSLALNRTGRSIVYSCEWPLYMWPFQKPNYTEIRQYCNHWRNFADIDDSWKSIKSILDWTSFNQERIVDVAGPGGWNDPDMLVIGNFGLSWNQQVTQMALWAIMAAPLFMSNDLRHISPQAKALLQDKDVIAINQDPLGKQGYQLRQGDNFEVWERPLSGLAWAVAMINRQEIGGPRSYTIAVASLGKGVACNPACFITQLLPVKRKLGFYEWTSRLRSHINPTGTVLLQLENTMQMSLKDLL
Briefly: Ki determination, Fabrazyme (acid α-galactosidase). In kind it is biochemical. As to conditions: pH 5.5, substrate 2,4-DNP α-Gal, room temperature. Here is the method: Kinetic studies were performed at room temperature in an appropriate buffer for each enzyme (specific conditions can be found below). All the reactions were performed in half-area 96-well-plates (Corning, Corning, NY, USA) and monitored with a Synergy H1 plate reader (BioTek Instruments, Winooski, VT, USA). In each experiment, the appropriate concentration of the enzyme was incubated with different concentrations of the inhibitors for 2–5 min before initiating the reaction by the addition of substrate. […] Ki determinations were performed using two different substrate concentrations. For each substrate concentration, a range of three to six inhibitor concentrations was used. Dixon plots (1/v vs. [I]) were constructed to validate the use of competitive inhibition model and to assess the fit of the data. The data were then fit to a competitive inhibition model using non-linear regression analysis with Grafit 7.0.3 (Erithacus Software, East Grinstead, UK).
Fabrazyme (Acid α-galactosidase): 20 mM sodium citrate, 50 mM sodium phosphate, 1.0 mM tetrasodium EDTA, 0.25% v/v Triton X-100® and 0.25% w/v taurocholic acid buffer (pH 5.5).

Assay [2] addresses T2, β-glucosidase/β-galactosidase from Agrobacterium sp. (Abg, GH1) (Agrobacterium sp., UniProt P12614).
T2 sequence (P12614 1-459): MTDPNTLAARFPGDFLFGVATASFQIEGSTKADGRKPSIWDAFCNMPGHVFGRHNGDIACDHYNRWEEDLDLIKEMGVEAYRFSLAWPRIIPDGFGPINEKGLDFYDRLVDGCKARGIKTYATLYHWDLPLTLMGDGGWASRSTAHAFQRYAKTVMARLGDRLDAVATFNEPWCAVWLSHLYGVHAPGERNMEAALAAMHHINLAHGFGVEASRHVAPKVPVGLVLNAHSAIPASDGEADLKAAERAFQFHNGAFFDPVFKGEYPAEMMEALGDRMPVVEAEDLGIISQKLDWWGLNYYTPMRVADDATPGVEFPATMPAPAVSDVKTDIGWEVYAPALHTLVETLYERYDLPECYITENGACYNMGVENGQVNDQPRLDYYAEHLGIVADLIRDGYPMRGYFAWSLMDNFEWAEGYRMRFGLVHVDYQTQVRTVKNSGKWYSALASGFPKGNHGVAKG
In words: Ki determination, Agrobacterium sp. β-glucosidase (Abg). In kind it is biochemical. As to conditions: pH 7, substrate pNP β-Gal, room temperature; read-out: Ki Abg (GH1) β-Glc/Gal. Here is the method:
(§1) Kinetic studies were performed at room temperature in an appropriate buffer for each enzyme (specific conditions can be found below). All the reactions were performed in half-area 96-well-plates (Corning, Corning, NY, USA) and monitored with a Synergy H1 plate reader (BioTek Instruments, Winooski, VT, USA). In each experiment, the appropriate concentration of the enzyme was incubated with different concentrations of the inhibitors for 2–5 min before initiating the reaction by the addition of substrate. The initial rate was then measured by monitoring the increase in absorbance as a result of the release of 4-nitrophenol at 405 nm for up to five minutes. Ki determinations were performed using two different substrate concentrations. For each substrate concentration, a range of three to six inhibitor concentrations was used. Dixon plots (1/v vs. [I]) were constructed to validate the use of competitive inhibition model and to assess the fit of the data. The data were then fit to a competitive inhibition model using non-linear regression analysis with Grafit 7.0.3 (Erithacus Software, East Grinstead, UK).
Agrobacterium sp. β-glucosidase (Abg): [64, 65] 50 mM sodium phosphate buffer (pH 7).

Assay [3] concerns the target lac Z β-galactosidase from E. coli (GH2) (Escherichia coli, UniProt P00722). Briefly: Ki determination, E. coli lac Z β-galactosidase. The assay is classed as biochemical. As to conditions: pH 7, substrate pNP β-Gal, room temperature. On the procedure:
as §1
E. coli lac z β-galactosidase: 50 mM sodium phosphate, 1.0 mM MgCl2 (pH 7). Substrate: pNP β-Gal, Km = 60 µM.

Assay [4] deals with α-glucosidase from Saccharomyces cerevisiae (GH13). In words: Ki determination, S. cerevisiae α-glucosidase. The assay is classed as biochemical. As to conditions: pH 7.0, substrate pNP α-Glc, room temperature; read-out: Ki S. cer. (GH13) α-Glc. On the procedure:
as §1
S. cerevisiae α-Glucosidase: 50 mM sodium phosphate buffer (pH 7.0). Substrate: pNP α-Glc, Km = 0.75 mM.

The target of another assay is GCase. As to conditions: read-out: Ki GCase; cited from earlier work.
Assay [5] deals with T3, recombinant human lysosomal β-glucocerebrosidase (GCase, GH30) (Homo sapiens, UniProt P04062).
T3 sequence (P04062 40-536): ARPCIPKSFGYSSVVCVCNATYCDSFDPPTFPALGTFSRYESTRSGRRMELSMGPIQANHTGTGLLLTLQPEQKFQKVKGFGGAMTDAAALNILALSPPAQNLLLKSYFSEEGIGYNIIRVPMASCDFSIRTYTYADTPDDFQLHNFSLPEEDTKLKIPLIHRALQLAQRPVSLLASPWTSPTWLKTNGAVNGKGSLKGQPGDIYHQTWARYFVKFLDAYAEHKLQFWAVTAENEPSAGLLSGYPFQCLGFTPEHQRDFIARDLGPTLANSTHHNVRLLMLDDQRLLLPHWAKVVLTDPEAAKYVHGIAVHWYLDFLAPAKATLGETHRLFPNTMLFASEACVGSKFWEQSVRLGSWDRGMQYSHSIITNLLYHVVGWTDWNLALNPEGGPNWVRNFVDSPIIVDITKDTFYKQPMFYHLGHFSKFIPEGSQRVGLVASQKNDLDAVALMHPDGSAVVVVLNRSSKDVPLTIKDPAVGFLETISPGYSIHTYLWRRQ
In words: Ki determination, GCase (β-glucocerebrosidase). In kind it is biochemical. On the procedure:
as §1
GCase (β-glucocerebrosidase): 20 mM sodium citrate, 50 mM sodium phosphate, 1.0 mM tetrasodium EDTA, 0.25% v/v Triton X-100® and 0.25% w/v taurocholic acid buffer (pH 7). Substrate: 2,4-DNP β-Glc, Km = 2.7 mM.

Where [6] appears, read: pH 7, substrate 2,4-DNP β-Glc, room temperature, read-out: Ki GCase (GH30) β-Glc.
Where [7] appears, read: values repeated in running text, read-out: Ki for GCase.

Sequence of lac Z β-galactosidase from E. coli (GH2) (P00722 2-1024 limits assumed): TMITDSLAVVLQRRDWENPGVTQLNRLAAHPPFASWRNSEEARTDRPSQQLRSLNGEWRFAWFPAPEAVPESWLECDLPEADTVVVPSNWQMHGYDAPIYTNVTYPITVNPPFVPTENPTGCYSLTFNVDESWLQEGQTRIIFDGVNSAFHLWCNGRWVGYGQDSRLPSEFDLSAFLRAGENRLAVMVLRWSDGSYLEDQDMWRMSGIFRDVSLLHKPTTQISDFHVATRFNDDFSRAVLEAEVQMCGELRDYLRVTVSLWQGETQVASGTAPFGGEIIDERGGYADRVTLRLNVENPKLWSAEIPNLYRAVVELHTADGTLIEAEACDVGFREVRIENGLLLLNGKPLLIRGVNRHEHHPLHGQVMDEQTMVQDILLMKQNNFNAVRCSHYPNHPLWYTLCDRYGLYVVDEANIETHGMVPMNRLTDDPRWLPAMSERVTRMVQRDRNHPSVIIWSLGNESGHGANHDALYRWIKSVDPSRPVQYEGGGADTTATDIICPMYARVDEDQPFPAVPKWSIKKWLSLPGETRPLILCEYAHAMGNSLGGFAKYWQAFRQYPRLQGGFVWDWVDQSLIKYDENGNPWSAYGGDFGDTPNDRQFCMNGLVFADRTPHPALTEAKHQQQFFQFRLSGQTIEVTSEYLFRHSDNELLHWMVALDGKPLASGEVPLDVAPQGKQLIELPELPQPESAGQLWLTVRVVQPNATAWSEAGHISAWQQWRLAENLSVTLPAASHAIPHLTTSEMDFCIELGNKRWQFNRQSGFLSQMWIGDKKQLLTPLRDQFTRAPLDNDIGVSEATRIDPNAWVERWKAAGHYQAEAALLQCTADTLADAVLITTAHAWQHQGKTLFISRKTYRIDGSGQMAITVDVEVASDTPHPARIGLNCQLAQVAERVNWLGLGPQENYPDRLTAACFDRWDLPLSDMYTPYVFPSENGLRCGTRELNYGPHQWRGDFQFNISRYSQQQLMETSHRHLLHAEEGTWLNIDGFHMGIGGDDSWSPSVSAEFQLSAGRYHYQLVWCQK

With `CN(C)c1cccc2c(S(=O)(=O)NCCc3ccc(C(=O)OCCCCCCN4C[C@@H](O)[C@H](O)[C@@H](O)C4)cc3)cccc12` [Compound 56, N-(6-((4-(2-(Dansylamino)ethyl)benzoyl)oxy)hexyl)-1,5-dideoxy-1,5-imino-D-xylitol], the Ki was more than 1000 µM in assay [1], 0.76 µM in assay [2], 198 µM in assay [3] and more than 1000 µM in assay [4].

On to `CC[C@@H]1[C@H](O)[C@@H](O)[C@H](O)CN1CCCCCC(=O)NCCc1c[nH]cn1` [Compound 20], for which the Ki on GCase was 4.1 µM.

For `[N-]=[N+]=NCCOCCOc1ccc(C(=O)OCCCCCCN2C[C@H](O)[C@@H](O)[C@H](O)[C@H]2CO)cc1` [Compound 47, N-(6-((4-(2-(2-Azidoethoxy)ethoxy)benzoyl)oxy)hexyl)-1,5-dideoxy-1,5-imino-D-glucitol], the Ki is more than 1000 µM in assay [1]; 1.7 µM in assay [2]; 0.09 µM in assay [5] (setting [6]); more than 1000 µM in assay [3]; 221 µM in assay [4].

`O=C(OCCCCCCN1C[C@H](O)[C@@H](O)[C@H](O)[C@H]1CO)c1ccc(OCCOCCOC(C(F)(F)F)(C(F)(F)F)C(F)(F)F)cc1` [Compound 49, N-(6-((4-(2-(2-(Nonafluoro-tert-butyloxy)ethoxy)ethoxy)benzoyl)oxy)hexyl)-1,5-dideoxy-1,5-imino-D-glucitol]: the Ki is more than 1000 µM in assay [1]; 3.6 µM in assay [2]; 0.35 µM in assay [5] (setting [6]); more than 1000 µM in assay [3]; more than 1000 µM in assay [4].

Turning to `O=C(NCCc1ccc(C(=O)OCCCCCCN2C[C@@H](O)[C@H](O)[C@@H](O)C2)cc1)OCc1ccccc1` [Compound 54, N-(6-((4-(2-(((Benzyloxy)carbonyl)amino)ethyl)benzoyl)oxy)hexyl)-1,5-dideoxy-1,5-imino-D-xylitol], the Ki in assay [1] was more than 1000 µM; in assay [2] it was 0.58 µM; in assay [5] (setting [6]) it was 0.31 µM; in assay [3], more than 1000 µM; in assay [4], more than 1000 µM.

As for `C#CCOc1ccc(C(=O)OCCCCCCN2C[C@@H](O)[C@H](O)[C@@H](O)C2)cc1` [Compound 52, N-(6-((4-(Propargyloxy)benzoyl)oxy)hexyl)-1,5-dideoxy-1,5-imino-D-xylitol], the Ki in assay [1] was more than 1000 µM; in assay [5] (setting [6]), 0.74 µM; in assay [3], more than 1000 µM; in assay [4], 267 µM.

Consider `N#CCCCCCOc1ccc(C(=O)OCCCCCCN2C[C@H](O)[C@@H](O)[C@H](O)[C@H]2CO)cc1` [Compound 45, N-(6-((4-((5-Cyanopentyl)oxy)benzoyl)oxy)hexyl)-1,5-dideoxy-1,5-imino-D-glucitol], for which the Ki in assay [1] was more than 1000 µM; in assay [2], 1.31 µM; in assay [5] (setting [6]), 0.28 µM; in assay [3] it was more than 1000 µM; in assay [4], 23.7 µM.

For the compound `O=C(OCCCCCCN1C[C@@H](O)[C@H](O)[C@@H](O)C1)c1ccc(OCCOCCOC(C(F)(F)F)(C(F)(F)F)C(F)(F)F)cc1` [Compound 50, N-(6-((4-(2-(2-(Nonafluoro-tert-butyloxy)ethoxy)ethoxy)benzoyl)oxy)hexyl)-1,5-dideoxy-1,5-imino-D-xylitol], the Ki in assay [1] is more than 1000 µM; in assay [2], 23.7 µM; in assay [5] (setting [6]), 0.4 µM; in assay [3] it was 255 µM; in assay [4] it was more than 1000 µM.

Take `CN(C)c1cccc2c(S(=O)(=O)NCCc3ccc(C(=O)OCCCCCCN4C[C@H](O)[C@@H](O)[C@H](O)[C@H]4CO)cc3)cccc12` [Compound 55, N-(6-((4-(2-(Dansylamino)ethyl)benzoyl)oxy)hexyl)-1,5-dideoxy-1,5-imino-D-glucitol]: the Ki in assay [1] was more than 1000 µM; in assay [2], 0.06 µM; in assay [5] (setting [7]), 0.018 µM; in assay [3], 89 µM; in assay [4], 8.7 µM.

As to `C#CCOc1ccc(C(=O)OCCCCCCN2C[C@H](O)[C@@H](O)[C@H](O)[C@H]2CO)cc1` [Compound 51, N-(6-((4-(Propargyloxy)benzoyl)oxy)hexyl)-1,5-dideoxy-1,5-imino-D-glucitol], the Ki in assay [1] is more than 1000 µM; in assay [2] it was 0.0022 µM; in assay [5] (setting [6]), 0.37 µM; in assay [3], more than 1000 µM; in assay [4] it was 4.9 µM.

Consider `[N-]=[N+]=NCCOCCOc1ccc(C(=O)OCCCCCCN2C[C@@H](O)[C@H](O)[C@@H](O)C2)cc1` [Compound 48, N-(6-((4-(2-(2-Azidoethoxy)ethoxy)benzoyl)oxy)hexyl)-1,5-dideoxy-1,5-imino-D-xylitol], for which the Ki in assay [1] is more than 1000 µM; in assay [2], 32.6 µM; in assay [5] (setting [6]), 1.4 µM; in assay [3] it was more than 1000 µM; in assay [4], more than 1000 µM.

With `O=C(NCCc1ccc(C(=O)OCCCCCCN2C[C@H](O)[C@@H](O)[C@H](O)[C@H]2CO)cc1)OCc1ccccc1` [Compound 53, N-(6-((4-(2-(((Benzyloxy)carbonyl)amino)ethyl)benzoyl)oxy)hexyl)-1,5-dideoxy-1,5-imino-D-glucitol], the Ki is more than 1000 µM in assay [1]; 0.06 µM in assay [2]; 0.022 µM in assay [5] (setting [7]); 424 µM in assay [3]; 8.1 µM in assay [4].

For `N#CCCCCCOc1ccc(C(=O)OCCCCCCN2C[C@@H](O)[C@H](O)[C@@H](O)C2)cc1` [Compound 46, N-(6-((4-((5-Cyanopentyl)oxy)benzoyl)oxy)hexyl)-1,5-dideoxy-1,5-imino-D-xylitol], the Ki was more than 1000 µM in assay [1]; 12.1 µM in assay [2]; 0.62 µM in assay [5] (setting [6]); more than 1000 µM in assay [3]; more than 1000 µM in assay [4].

(Values after PMC7594070, “N-Alkylated Iminosugar Based Ligands: Synthesis and Inhibition of Human Lysosomal β-Glucocerebrosidase” (Molecules, 2020).)
